Results from patent US9975869B2 (Sphaera Pharma Pvt. Ltd., priority 2013, dated 2018).

Each compound was assayed on AMPK (assay: AMPK activation potential, cell based ELISA (Phospho-AMPKα Thr172) in Hep G2 cells). Conditions: 10 nm concentration; Hep G2 liver cells; % activity with DMSO control as 100%; 30 min incubation for Epicatechin analogs.
Experimental: Testing of Compounds for Their AMPK Activation Potential
AMPK activation potential of the compounds was evaluated using cell based ELISA. Hepatoma (Hep G2) liver cells were maintained in a T 75 culture flask-containing 25 mM DMEM+10% fetal calf serum. The cells were maintained in a T 75 culture flask-containing medium (DMEM+10% fetal calf serum). On reaching a confluence of 70 to 80%, the cells were seeded in a 96 well plate at a density of 40,000 cells per well in 25 mM DMEM+10% FCS medium. The plates were then incubated at 37° C. with 5% CO2 for 24 hours. Various concentrations of drugs were prepared in DMSO and diluted to required concentration with the medium and incubated at 37° C. with 5% CO2 for 30 min and 1 h for Epicatechin analogs and 11-BHP analogs respectively. Metformin was used as positive control. Cells were fixed with 4% formaldehyde for 30 minutes at room temperature and washed three times with PBS containing 0.1% Triton X-100. Endogenous peroxidase was quenched with 1% H2O2 in PBS-T (0.1% Tween 20) for 30 minutes and washed three times in PBS-T. Cells were blocked with 1% BSA in PBS-T for 1 hour. The cells were incubated with 1:1000 dilution primary antibody (Phospho-AMPKα (Thr172) Rabbit mAb, Cell Signaling in PBS-T containing 5% BSA at 4° C. overnight. The cells were then washed three times with PBS-T for 5 minutes and incubated with 1:1000 dilution secondary antibody (Anti-rabbit IgG, HRP-linked Antibody, Cell Signaling) in PBS-T with 1% BSA for 1 hour at RT. Cells were washed three times with PBS-T for 5 minutes The cells were incubated with 100 μl TMB substrate solution for 30 minutes and the reaction was stopped with 100 μl of 2N H2SO4. Then the plate was read at 450 nm using ELISA plate reader and absorbance recorded. % activity was calculated using DMSO control as 100%. All compounds of the present invention, as exemplified and encompassed are found to be active.

| Compound | % pAMPK(at 10 nm) [%] |
| --- | --- |
| Oc1ccc([C@H]2Oc3ccccc3C[C@H]2O)cc1O (racemic) [Compound 1002, Cis (±) 3-hydroxychroman-2-yl)benzene-1,2-diol] | 108 |
| Oc1ccc([C@H]2Oc3cc(O)ccc3C[C@H]2O)cc1 (racemic) [Compound 1004, Cis (±) 2-(4-hydroxyphenyl)chroman-3,7-diol] | 114 |
| Oc1cccc([C@H]2Oc3cccc(O)c3C[C@H]2O)c1 (racemic) [Compound 1005, Cis (±) 2-(3-hydroxyphenyl)chroman-3,5-diol] | 102 |
| Oc1ccc([C@H]2Oc3cccc(O)c3C[C@H]2O)cc1 (racemic) [Compound 1006, Cis (±) 2-(4-hydroxyphenyl)chroman-3,5-diol] | 103 |
| Oc1cccc([C@H]2Oc3cc(O)ccc3C[C@H]2O)c1 (racemic) [Compound 1007, Cis (±) 2-(3-hydroxyphenyl)chroman-3,7-diol] | 113 |
| Oc1ccc([C@H]2Oc3cc(O)cc(O)c3C[C@H]2O)cc1 (racemic) [Compound 1008, Cis (±) 2-(4-hydroxyphenyl)chroman-3,5,7-triol] | 103 |
| Oc1cc(O)c2c(c1)O[C@H](c1ccccc1)[C@H](O)C2 (racemic) [Compound 1015, Cis (±) 2-phenylchroman-3,5,7-triol] | 119 |
| COc1cccc([C@H]2Oc3cc(O)ccc3C[C@H]2O)c1 (racemic) [Compound 1017] | 110 |
| COc1ccc2c(c1)O[C@H](c1cccc(O)c1)[C@H](O)C2 (racemic) [Compound 1018] | 100 |
| COc1cccc([C@H]2Oc3cc(OC)ccc3C[C@H]2O)c1 (racemic) [Compound 1019] | 101 |
| Cc1c([C@H]2Oc3cc(O)cc(O)c3C[C@H]2O)ccc(O)c1O (racemic) [Compound 1031, Cis (±) 2-(3,4-dihydroxy-2-methylphenyl)chroman-3,5,7-triol] | 101 |
| Oc1cc(O)c2c(c1)O[C@H](c1ccc(O)c(O)c1F)[C@H](O)C2 (racemic) [Compound 1032, Cis (±) 2-(2-fluoro-3,4-dihydroxyphenyl)chroman-3,5,7-triol] | 104 |
| Oc1cc(O)c2c(c1)O[C@H](c1cc(O)c(O)cc1F)[C@H](O)C2 (racemic) [Compound 1033, Cis (±) 2-(2-fluoro-4,5-dihydroxyphenyl)chromane-3,5,7-triol] | 107 |
| Oc1cc(O)c2c(c1)O[C@H](c1ccc(O)c(F)c1)[C@H](O)C2 (racemic) [Compound 1034, Cis (±) 2-(3-fluoro-4-hydroxyphenyl)chromane-3,5,7-triol] | 107 |
| Cc1cc([C@H]2Oc3cc(O)cc(O)c3C[C@H]2O)cc(O)c1O (racemic) [Compound 1035, Cis (±) (2-(3,4-dihydroxy-5-methylphenyl)chromane-3,5,7-triol] | 102 |
| COc1cc([C@H]2Oc3cc(O)ccc3C[C@H]2O)ccc1C (stereo in doubt) [Compound 1026, 2-(3-methoxy-4-methylphenyl)chromane-3,7-diol] | 101 |
| Cc1ccc([C@H]2Oc3cc(O)ccc3C[C@H]2O)cc1O (stereo in doubt) [Compound 1027, 2-(3-hydroxy-4-methylphenyl)chromane-3,7-diol] | 94 |
| COc1cc(C2Oc3cc(O)ccc3C[C@H]2O)ccc1F (stereo in doubt) [Compound 1028, 2-(4-fluoro-3-methoxyphenyl)chromane-3,7-diol] | 101 |
| Oc1ccc2c(c1)OC(c1ccc(F)c(O)c1)[C@H](O)C2 (stereo in doubt) [Compound 1029, 2-(4-fluoro-3-hydroxyphenyl)chromane-3,7-diol] | 93 |

| Compound | % pAMPK(at 10 nm) [%] |
| --- | --- |
| CCCO[C@@H]1Cc2ccc(O)cc2OC1c1cccc(O)c1 (stereo in doubt) [Compound 1030, 2-(3-hydroxyphenyl)-3-propoxychroman-7-ol] | 94 |
| [2H]C1([2H])c2c(O)cc(O)cc2O[C@H](c2ccc(O)c(O)c2)[C@@H]1O [Compound 1036, (2R,3R)-2-(3,4-dihydroxyphenyl)chromane-4,4-d2-3,5,7-triol] | 105 |
| [2H][C@]1(c2ccc(O)c(O)c2)Oc2cc(O)cc(O)c2C[C@H]1O [Compound 1037, (2R,3R)-2-(3,4-dihydroxyphenyl)chromane-2-d-3,5,7-triol] | 110 |
| C[n+]1cccc(C(=O)O[C@@H]2Cc3c(O)cc(O)cc3O[C@@H]2c2ccc(O)c(O)c2)c1 [Compound 1041, 3-((((2R,3R)-2-(3,4-dihydroxyphenyl)-5,7-dihydroxychroman-3-yl)oxy)carbonyl)-1-methylpyridin-1-ium] | 88 |
| CC(C)(C)COC(=O)Oc1cc([C@H]2Oc3cc(O)cc(O)c3C[C@H]2O)ccc1O [Compound 1042, 2-hydroxy-5-((2R,3R)-3,5,7-trihydroxychroman-2-yl)phenyl neopentyl carbonate] | 95 |
| CCCCCCCC(=O)Oc1ccc([C@H]2Oc3cc(O)cc(O)c3C[C@H]2O)cc1O [Compound 1043, 2-hydroxy-4-((2R,3R)-3,5,7-trihydroxychroman-2-yl)phenyl octanoate] | 98 |
| CC(C)NC(=O)Oc1ccc([C@H]2Oc3cc(O)cc(O)c3C[C@H]2O)cc1OC(=O)NC(C)C [Compound 1044, 4-((2R,3R)-3,5,7-trihydroxychroman-2-yl)-1,2-phenylene bis(isopropylcarbamate)] | 96 |
| CC(C)(C)COC(=O)O[C@@H]1Cc2c(O)cc(O)cc2O[C@@H]1c1ccc(O)c(O)c1 [Compound 1045, (2R,3R)-2-(3,4-dihydroxyphenyl)-5,7-dihydroxychroman-3-yl neopentyl carbonate] | 105 |
| CC(C)NC(=O)O[C@@H]1Cc2c(O)cc(O)cc2O[C@@H]1c1ccc(O)c(O)c1 [Compound 1046, (2R,3R)-2-(3,4-dihydroxyphenyl)-5,7-dihydroxychroman-3-yl isopropylcarbamate] | 101 |
| CN(C)C(=O)O[C@@H]1Cc2c(O)cc(O)cc2O[C@@H]1c1ccc(O)c(O)c1 [Compound 1047, (2R,3R)-2-(3,4-dihydroxyphenyl)-5,7-dihydroxychroman-3-yl dimethylcarbamate] | 100 |
| O=C(OCc1ccccc1)Oc1ccc([C@H]2Oc3cc(O)cc(O)c3C[C@H]2O)cc1OC(=O)OCc1ccccc1 [Compound 1048, dibenzyl (4-((2R,3R)-3,5,7-trihydroxychroman-2-yl)-1,2-phenylene) bis(carbonate)] | 103 |
| COC(=O)Oc1ccc([C@H]2Oc3cc(O)cc(O)c3C[C@H]2O)cc1OC(=O)OC [Compound 1049, dimethyl (4-((2R,3R)-3,5,7-trihydroxychroman-2-yl)-1,2-phenylene) bis(carbonate)] | 105 |
| CC(C)COC(=O)Oc1cc(OC(=O)OCC(C)C)c2c(c1)O[C@H](c1ccc(O)c(O)c1)[C@H](O)C2 [Compound 1050, (2R,3R)-2-(3,4-dihydroxyphenyl)-3-hydroxychromane-5,7-diyl diisobutyl bis(carbonate)] | 91 |
| O=C(NCc1ccccc1)Oc1cc(OC(=O)NCc2ccccc2)c2c(c1)O[C@H](c1ccc(OC(=O)NCc3ccccc3)c(OC(=O)NCc3ccccc3)c1)[C@H](O)C2 [Compound 1051, 4-((2R,3R)-5,7-bis((benzylcarbamoyl)oxy)-3-hydroxychroman-2-yl)-1,2-phenylene bis(benzylcarbamate)] | 85 |
| O=C(OCc1ccccc1)Oc1cc(OC(=O)OCc2ccccc2)c2c(c1)O[C@H](c1ccc(OC(=O)OCc3ccccc3)c(OC(=O)OCc3ccccc3)c1)[C@H](O)C2 [Compound 1052, dibenzyl (4-((2R,3R)-5,7-bis(((benzyloxy)carbonyl)oxy)-3-hydroxychroman-2-yl)-1,2-phenylene) bis(carbonate)] | 103 |
| CCOC(=O)O[C@@H]1Cc2c(O)cc(O)cc2O[C@@H]1c1ccc(O)c(O)c1 [Compound 1053, (2R,3R)-2-(3,4-dihydroxyphenyl)-5,7-dihydroxychroman-3-yl ethyl carbonate] | 94 |
| CC(C)OC(=O)O[C@@H]1Cc2c(O)cc(O)cc2O[C@@H]1c1ccc(O)c(O)c1 [Compound 1055, (2R,3R)-2-(3,4-dihydroxyphenyl)-5,7-dihydroxychroman-3-yl isopropyl carbonate] | 105 |
| COC(=O)CNC(=O)O[C@@H]1Cc2c(O)cc(O)cc2O[C@@H]1c1ccc(O)c(O)c1 [Compound 1056, methyl ((((2R,3R)-2-(3,4-dihydroxyphenyl)-5,7-dihydroxychroman-3-yl)oxy)carbonyl)glycinate] | 112 |
